Measured values as given in patent publication US20140296174A1, “SILK-BASED MULTIFUNCTIONAL BIOMEDICAL PLATFORM” (TUFTS UNIVERSITY, priority 2011, published 2014).

Assays:
[1] = Binding of doxorubicin to silk carrier; type: physicochemical; conditions: typically
Text: In addition to having properties which make silk well suited to drug delivery in general, silk is uniquely suited to deliver doxorubicin, as we have observed that doxorubicin interacts strongly with the silk. […] The interaction between the silk and the doxorubicin also results in a large fraction (typically more than 50%) of the total doxorubicin dose is bound to the carrier. In some embodiments, therefore, the carrier may be proteolytically degraded to enhance release the bound doxorubicin. This provide an opportunity to design protease-triggered drug release systems. […] Degradation-mediated drug release from silk biomaterials can be used to design systems that provide drug locally proportionately to disease progression: aggressive disease/increased proteolysis would degrade the silk carrier more rapidly, releasing larger doses of drug than in healthy tissue.

[2] = Doxorubicin storage stability in silk films/MPAs versus solution (fluorescence); type: physicochemical; conditions: 3 weeks at −20° C. and 60° C.; excitation 430, emission 550
Description: Silk films for degradation and stability studies were prepared by casting of 6% (w/v) silk solution containing 1.0 mg/mL doxorubicin on a patterned mold. After drying at ambient conditions for 48 hours the samples were removed and vapor annealed for 24 hours as previously described (Jin et al., 2005).
After 3 weeks, the silk films were degraded with 10 mg/mL proteinase k for 6 hours, and doxorubicin concentration for all samples was determined by comparing fluorescence to a standard curve of known concentrations (excitation=430, emission=550).
The silk DxR-MPA was evaluated at different time points for optical performance and drug content eluted by measuring absorbance at 495 nm and comparing measured values to a standard curve (FIGS. 11A & 33). […] The doxorubicin-loaded silk-MPAs were stored at −20° C.

[3] = silk microspheres, depending on processing pH; cited from earlier work

Row | fraction of the total doxorubicin dose bound to the carrier [1] | doxorubicin fluorescence after storage [2] | SMILES | fraction released [3]
1 | more than 50% | decreases | COc1cccc2c1C(=O)c1c(O)c3c(c(O)c1C2=O)C[C@@](O)(C(=O)CO)C[C@@H]3O[C@H]1C[C@H](N)[C@H](O)[C@H](C)O1 [doxorubicin] | 
2 |  |  | CN(C)c1ccc(C(=C2C=CC(=[N+](C)C)C=C2)c2ccc(N(C)C)cc2)cc1 [crystal violet] | 25-60%
